Results taken from patent US8647845B2, “Method for producing sugar” (Asahi Group Holdings, Ltd., priority 2008, dated 2014).

Target: T1, sucrase (Saccharomyces cerevisiae, UniProt P00724)
T1 construct: S. cervisiae (Taiken 396 strain) which is a general yeast having sucrase; endogenous in cells; host or cells: Saccharomyces cerevisiae Taiken 396 strain (live yeast in sugarcane-pressed juice)
T1 sequence (P00724 20-532): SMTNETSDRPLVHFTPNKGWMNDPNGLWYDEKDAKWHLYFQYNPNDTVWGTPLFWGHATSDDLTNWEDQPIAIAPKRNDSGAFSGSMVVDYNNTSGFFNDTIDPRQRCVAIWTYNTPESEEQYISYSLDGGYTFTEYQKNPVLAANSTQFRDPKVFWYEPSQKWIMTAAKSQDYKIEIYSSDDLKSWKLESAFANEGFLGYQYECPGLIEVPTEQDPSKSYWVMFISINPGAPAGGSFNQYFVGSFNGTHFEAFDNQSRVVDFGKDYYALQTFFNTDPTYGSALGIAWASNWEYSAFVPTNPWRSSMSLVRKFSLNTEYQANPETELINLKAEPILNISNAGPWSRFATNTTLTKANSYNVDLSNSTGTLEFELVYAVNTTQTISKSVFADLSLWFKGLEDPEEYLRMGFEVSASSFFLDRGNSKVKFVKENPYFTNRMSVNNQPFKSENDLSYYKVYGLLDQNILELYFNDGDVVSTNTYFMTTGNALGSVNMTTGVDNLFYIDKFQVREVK
Test: Fermentation test on sugarcane-pressed juice using sucrase inhibitor
Assay type: cell-based, S. cervisiae (Taiken 396 strain)
Conditions: 60 mM inhibitor
Protocol: S. cervisiae ([…] 396 strain) which is a general yeast having sucrase was planted in a sugarcane-pressed juice. Methyl-α-D-glucopyranoside serving as a sucrase inhibitor was added thereto at a concentration 60 mM. A fermentation test was conducted to examine the changes in the concentrations of sucrose, invert sugars, and ethanol over time. The fungal strain used for fermentation had been pre-precultured by shaking in 10 mL of a YM medium at 30° C. for 24 hours, and then further precultured by shaking in 500 mL of a YPD medium at 30° C. for 12 hours. The yeast was collected from the precultured medium by centrifugation. 100 mL of the pressed juice (in the pressed juice, the sucrose concentration was 10.0%, and the invert sugar concentration was 3.0%) and 60 mM of methyl-α-D-glucopyranoside were placed in a 300-mL Erlenmeyer flask with a fermentation lock. The yeast collected from the precultured medium by centrifugation was added into the flask for fermentation. The fermentation was carried out by shaking at 30° C. at 120 rpm.

[1] = 6 hours after the fermentation was started

For CO[C@H]1O[C@H](CO)[C@@H](O)[C@H](O)[C@H]1O [methyl-α-D-glucopyranoside], the “invert sugars converted into ethanol” value [1] was “all the invert sugars were converted into ethanol”, the sucrose remaining [1] was “approximately half of the sucrose remained” and the “sucrose ratio of the fermented liquid” value (8 hours after the fermentation was started) was 94.0%. For the same molecule, the sucrose decomposition speed (sugarcane-pressed juice (sucrose 10.0%, invert sugar 3.0%), 30° C., compared with no inhibitor) was “made slow”.
